Legend:
[1] = Protocol: The pH lowering ability of glycolide in its crystalline form, obtained from Purac Ltd., Holland, was tested in plasma at 37° C. as a function of time, compared to that of lactide and citric acid (also in crystalline form). All three materials were taken such as to eventually yield equal molar amounts of carboxylic acid groups.
[2] = remark: listed apart in the source
Protocol: The same experiment was repeated by comparing the pH lowering kinetics of the same compounds, deposited onto a polymeric support in the form of weighed (240 mg), rectangular shaped pieces of non-woven (NW) tampon cloth (hereinafter referred to as “strips”) by evaporation from an acetone solution, substantially as described in WO 02/17981 and U.S. 2002/0045873 whose contents are hereby incorporated by reference in their entireties. The strips may be incorporated in a tampon. The strips were dipped in plasma at 37° C.

Row | SMILES | degradation / acid release kinetics (in words) [1] | release behaviour on strips (in words) ([2]; non-woven strips, plasma, 37° C. (FIG. 2)) | time in which degradation was completed [1] | change in degradation rate when deposited on strips [2]
1 | O=C(O)CC(O)(CC(=O)O)C(=O)O [citric acid] | burst-like immediate release | behaved as previously described | – | –
2 | O=C1COC(=O)CO1 [glycolide] | significantly faster than that of lactide | – | approximately 40 minutes | two-fold increase
3 | CC1OC(=O)C(C)OC1=O (stereo not shown) [lactide] | – | – | approximately 120 minutes | two-fold increase

— patent US7892218B2, “pH reducing formulation” (Rostam Ltd., priority 2004, dated 2011)
